Results on one compound are retold here after patent publication US20240277705A1, “DOSAGE REGIMENS FOR ECUBECTEDIN” (PHARMA MAR S.A., priority 2021, published 2024).

The subject of data set [1] is Caki-1 (kidney clear cell carcinoma). The data set can be described thus: MTT cell viability assay, Caki-1. Conditions: Homo sapiens, CAKI-1, 72 h; read-out: GI50, M (geometric mean, N = 3). It counts as cell-based. An excerpt:
Cell lines and cell culture: The following human cancer cell lines have been used in this example (the collection code and the tissue of origin are shown in brackets): • RXF 393 (NCI) (renal carcinoma) • Caki-1 (ATCC HTB-46) (kidney clear cell carcinoma)
Cell lines were obtained from the American Type Culture Collection (ATCC) or the National Cancer Institute (NCI). Cells were maintained in the appropriate culture medium, namely: • RPMI for RXF 393 • McCoy's 5A for Caki-1
All media were supplemented with 10% FBS, 2 mM L-Glutamine and 100 units/mL of penicillin-streptomycin.
Cell viability assay: To assess the antiproliferative activity of the compounds a colorimetric assay based on 3-(4,5-Dimethylthiazol-2-yl)-2,5-diphenyltetrazolium bromide (MTT) reduction was used. […] Culture medium was then removed and 100 μL of neat DMSO added to each well to dissolve the formazan product into a coloured solution whose absorbance at 540 nm was finally measured in a PolarStar Omega microplate multilabel reader (BMG Labtech, Ortenberg, Germany). […]
GI50 is finally used as reference value. […] To define a significant (ca. 70%) confidence interval for the geometric mean, its value must be multiplied and divided by the corresponding geometric standard deviation (GSD) which was also calculated. […]

The subject of data set [2] is MRI-H-121 xenografts (human renal carcinoma tumor line). In words: MRI-H-121 mouse xenograft study, antitumor activity. The data set is classed as in vivo, mice. Conditions: 1.25 mg/kg i.v. days 0, 7 and 14. The procedure: Compounds: Vials of off-white lyophilized PM14 cake were stored at −20° C. The cake was reconstituted with 2 ml of water for injection (Sigma-Aldrich, Co) to a concentration of 0.5 mg/ml. Further dilutions were made with a 5% glucose solution for injection/USP (Baxter, Inc.). A clear PM14 solution was obtained.
Animals: Female athymic nu/nu mice between 4 to 6 weeks of age were purchased from Envigo (Barcelona, Spain).
Tumor line: MRI-H-121 is a human renal carcinoma tumor line, originally obtained from the DCT Tumor Bank. Developed by Dr. A. E. Bogden, Mason Research Institute MA and maintained as a serial transplanted tumor line in athymic nude mice. Original tissue came from a patient at U. of Mass. Med. Center.
Study groups: Briefly, 4 to 6 week-old female athymic nu/nu mice were subcutaneously implanted into their right flank with a MRI-H-121 tissue from serial transplanted donor mice. Tumors were removed from donor animals and were cut into fragments (3 mm^3). Tissue was debrided of membrane, hemorrhagic and necrotic areas, placed in Matrigel™ (Corning Incorporated Life Sciences) and subcutaneously implanted. Recipient mice were anesthetised by inhalation of isoflurane, a small incision into the skin of the back was made and one tumor fragment per mouse was transplanted with tweezers. The mice were monitored daily.
(§1) Tumor bearing animals were randomly allocated into 2 groups (N=10/group): PM14 administered at 1.25 mg/kg and placebo. All treatments were intravenously administered once a week for 3 consecutive weeks (days 0, 7 and 14).
Tumor measurements were determined using digital calipers (Fowler Sylvac, S235PAT). The formula to calculate volume for a prolate ellipsoid was used to estimate tumor volume (mm^3) from 2-dimensional tumor measurements:
Where, a: length (longest diameter) and b: width (shortest diameter) in mm of a tumor.
(§2) Tumor volume and animal body weights were measured 2-3 times per week starting from the first day of treatment.
When tumors reached ca. 190 mm^3, tumor bearing animals were randomly allocated into the following experimental groups (N=10/group):
Treatments were initiated on Day 0 and were intravenously administered once per week for 3 consecutive weeks (days 0, 7 and 14).
Tumor volume data from groups following the 1st, 2nd, 3rd, 4th and 5th weeks were compared using a two tailed Mann Whitney U test. The data are presented as medians and interquartile range (IQR).
Complete tumor regression (CR) was defined when tumor volume <63 mm^3 for 2 or more consecutive measurements. Survival statistical differences between groups were assessed by Kaplan Meier curves applying the log rank test.

Data set [3] in a line: MRI-H-121 mouse xenograft study, tolerability. It counts as in vivo, mice. The procedure: as §1, §2
Treatment tolerability was assessed by monitoring body weight evolution, clinical signs of systemic toxicity, as well as evidences of local damage in the injection site.
Treatments producing >20% lethality and/or 20% net body weight loss were considered toxic. Animals were euthanized when their tumors reached ca. 2,000 mm^3 and/or severe necrosis was seen.

One may read the GI50 as the concentration at which growth is held to half of that of the control. Consider `COc1c(C)cc2c(c1O)[C@@H]1[C@@H]3[C@@H]4SC[C@]5(N[C@H](CO)Cc6c5[nH]c5ccccc65)C(=O)OC[C@@H](c5c6c(c(C)c(OC(C)=O)c54)OCO6)N3[C@@H](O)[C@H](C2)N1C` [PM14, ECUBECTEDIN], for which the GI50 in data set [1] came out at 0.611 nM. For the same compound, the “Median survival time” value in data set [2] is 32.5 days. Also, the antitumor activity result in data set [2] is listed as “very strong antitumor activity”. Besides, the “TV, mm^3 median” value in data set [2] (Day 0) turned out to be 190.8 mm^3; in data set [2] (Day 7, 1.25 mg/kg) it was 401.2 mm^3; in data set [2] (Day 14, 1.25 mg/kg) it was 472.7 mm^3; in data set [2] (Day 21, 1.25 mg/kg), 743.8 mm^3; in data set [2] (Day 28, 1.25 mg/kg) it was 1392 mm^3; in data set [2] (Day 35, 1.25 mg/kg), 2015 mm^3. Besides, the mortality result in data set [3] (1.25 mg/kg i.v. days 0, 7 and 14) is reported as “No mortality”. Further, the “mean body weight reduction” value in data set [3] (Day 16, 1.25 mg/kg i.v. days 0, 7 and 14, reversible) is given as “ca. −15.0%”. Also, the tolerability entry in data set [3] (MRI-H-121 tumor bearing animals, 1.25 mg/kg) was “well tolerated”.
